These results are taken from US20140235601A1, “Use of Aromatase Inhibitor Or Estrogen Blocker For Increasing Spermatogenesis Or Testosterone Levels In Males” (priority 2011, published 2014).

Common to all, as to format: in vivo, human
For assay [1], the system named is person with extremely small and atrophic testicles. The assay is described as follows: Clinical Example B: person with low libido, erectile dysfunction and ejaculatory failure treated with Femara. Particulars: ⅛ to ½ of a 2.5 mg tablet. The protocol:
A […] athletic and muscular […] complaining of low libido, erectile dysfunction and ejaculatory failure. Patient was needing to use Viagra in order to function sexually, and had no desire for sex. Sex hormones testosterone and estrogen were measured at prepubertal levels.

For assay [2], the system named is person with testicular atrophy following pelvic radiation. The assay is described as follows: Clinical Example C: person with testicular decline after pelvic radiation for prostate cancer treated with Letrazole. Particulars: 1/40th of a 2.5 mg tablet daily. The source says:
A sexually active person with biopsy confirmed prostate cancer elects to treat their cancer with pelvic radiation. Following radiation there is a progressive decline in testosterone levels, combined with testicular atrophy and increasing erectile dysfunction.

Assay [3] has as its system married person with small very atrophic testicles. In words: Clinical Example A: person with history of undescended testicles, impotence and infertility treated with Arimidex. Particulars: ⅛ mg (0.125 mg) daily. The source says: A married person with a history of undescended testicles that were surgically corrected […]. This person presented to the inventor with small very atrophic testicles, impotence (difficulty in erecting, only occasionally able to have successful intercourse only with PDE5 inhibitors) and an inability to conceive despite two years of unprotected sexual intercourse with their spouse.
All of this is a result of the improved testicular function that this relatively low dose of Arimidex provided for this patient.

Turning to `N#Cc1ccc(C(c2ccc(C#N)cc2)n2cncn2)cc1` [Femara, Letrozole], in assay [1], the ejaculations during intercourse entry is recorded as “restoration”, the erections result is listed as “improved”, the sex drive result is reported as “restoration” and the testicular function result is on record as “dramatic increase”. For the same compound, the testosterone levels entry in assay [1] is recorded as “restored to the high supraphysiologic levels”. Moreover, in assay [2], the testicular function result is given as “significant improvement” and the testosterone levels entry was “dramatic rise”.
Turning to `CC(C)(C#N)c1cc(Cn2cncn2)cc(C(C)(C)C#N)c1` [Arimidex, Anastrozole], in assay [3], the erectile function result was “dramatic improvement”; the “fertility (ability to conceive)” value was “able to conceive and have a child”; the sperm counts entry is “dramatic increase”; the testicular function result was “improved”. In assay [3], the testosterone levels result is “significant increase”.
